From patent US11051515B2, “3-acyl-benzamides and their use as herbicides” (Bayer Aktiengesellschaft, priority 2017, dated 2021)

How the values were obtained:
DIGSA = assay: Pre-emergence action against DIGSA; assay type: in vivo, Digitaria sanguinalis; settings: dosage 320 g/ha, scored visually after 3 weeks vs untreated controls
Source text: Seeds of monocotyledonous and dicotyledonous weed plants and crop plants are laid out in sandy loam soil in wood-fiber pots and covered with soil. The compounds of the invention, formulated in the form of wettable powders (WP) or as emulsion concentrates (EC), are then applied to the surface of the covering soil in the form of an aqueous suspension or emulsion at a water application rate equating to […], with addition of 0.2% wetting agent. After the treatment, the pots are placed in a greenhouse and kept under good growth conditions for the trial plants. The damage to the test plants is scored visually after a test period of 3 weeks by comparison with untreated controls (herbicidal activity in percent (%): 100% activity=the plants have died, 0% activity=like control plants).

ECHCG = assay: Pre-emergence action against ECHCG; assay type: in vivo, Echinochloa crus-galli; settings: pre-emergence, dosage 320 g/ha, scored visually after 3 weeks vs untreated controls
Procedure, shortened: (§1)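 Seeds sown in sandy loam in wood-fiber pots and covered with soil. Greenhouse growth; visual damage scored after 3 weeks versus untreated controls (100% = dead, 0% = like control).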

ABUTH [1] = assay: Pre-emergence action against ABUTH; assay type: in vivo, Abutilon theophrasti; settings: pre-emergence, dosage 320 g/ha, scored visually after 3 weeks vs untreated controls
Procedure, shortened: as §1

AMARE [2] = assay: Pre-emergence action against AMARE; assay type: in vivo, Amaranthus retroflexus; settings: pre-emergence, dosage 320 g/ha, scored visually after 3 weeks vs untreated controls
Procedure, shortened: as §1

MATIN [3] = assay: Pre-emergence action against MATIN; assay type: in vivo, Matricaria inodora; settings: Dosage 320 g/ha, pre-emergence
Procedure, shortened: as §1

STEME [4] = assay: Pre-emergence action against STEME; assay type: in vivo, Stellaria media; settings: Dosage 320 g/ha, pre-emergence
Procedure, shortened: as §1

VIOTR = assay: Pre-emergence action against VIOTR; assay type: in vivo, Viola tricolor; settings: Dosage 320 g/ha, pre-emergence
Procedure, shortened: as §1

VERPE = assay: Pre-emergence action against VERPE; assay type: in vivo, Veronica persica; settings: Dosage 320 g/ha, pre-emergence
Procedure, shortened: as §1

AMARE [5] = assay: Post-emergence action against AMARE; assay type: in vivo, Amaranthus retroflexus; settings: post-emergence, dosage 80 g/ha, visual assessment about 3 weeks after treatment vs untreated controls
Procedure, shortened: (§2)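 Post-emergence foliar spray on greenhouse plants at the one-leaf stage, using wettable-powder or emulsion-concentrate formulations in water (600 to […], plus 0.2% wetting agent). Damage scored by eye roughly 3 weeks later against untreated plants: 0% = like control, 100% = dead.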

AVEFA = assay: Pre-emergence action against AVEFA; assay type: in vivo, Avena fatua; settings: dosage 320 g/ha, scored visually after 3 weeks vs untreated controls
Procedure, shortened: as §1

ABUTH [6] = assay: Post-emergence action against ABUTH; assay type: in vivo, Abutilon theophrasti; settings: post-emergence, dosage 80 g/ha, visual assessment about 3 weeks after treatment vs untreated controls
Procedure, shortened: as §2

STEME [7] = assay: Post-emergence action against STEME; assay type: in vivo, Stellaria media; settings: post-emergence, dosage 80 g/ha
Procedure, shortened: as §2

MATIN [8] = assay: Post-emergence action against MATIN; assay type: in vivo, Matricaria inodora; settings: post-emergence, dosage 80 g/ha, visual assessment about 3 weeks after treatment vs untreated controls
Procedure, shortened: as §2

PHBPU = assay: Post-emergence action against PHBPU; assay type: in vivo, Pharbitis purpurea; settings: post-emergence, dosage 80 g/ha
Procedure, shortened: as §2

With `CCn1nnnc1NC(=O)c1ccc(C(F)(F)F)c(C(=O)C2CCCCC2)c1Cl` [2-155] the “Pre-emergence action against DIGSA (herbicidal activity)” value (shortened to “Pre-emergence action against DIGSA”) (DIGSA) was 90%, the “Pre-emergence action against ECHCG (herbicidal activity)” value (ECHCG) was 80% and the “Pre-emergence action against ABUTH (herbicidal activity)” value (“Pre-emergence action against ABUTH” for short) (ABUTH [1]) was 100%. For the same molecule, the “Pre-emergence action against AMARE (herbicidal activity)” value (“Pre-emergence action against AMARE” below) (AMARE [2]) was 100%, the “Pre-emergence action against MATIN” value (MATIN [3]) was 100% and the “Pre-emergence action against STEME” value (STEME [4]) was 100%. For the same molecule, the “Pre-emergence action against VIOTR” value (VIOTR) was 100%, the “Pre-emergence action against VERPE” value (VERPE) was 80% and the “Post-emergence action against AMARE (herbicidal action in percent)” value (AMARE [5]) was 80%.

For `CSc1c(C(=O)Nc2nnnn2C)ccc(C(F)(F)F)c1C(=O)C1CCCCC1` [1-286], the “Pre-emergence action against AVEFA (herbicidal activity)” value (AVEFA) was 90%, the “Pre-emergence action against DIGSA” value (DIGSA) was 100% and the “Pre-emergence action against ABUTH” value (ABUTH [1]) was 100%. For the same molecule, the “Pre-emergence action against AMARE” value (AMARE [2]) was 100%, the “Pre-emergence action against MATIN” value (MATIN [3]) was 90% and the “Pre-emergence action against STEME” value (STEME [4]) was 90%. For the same molecule, the “Pre-emergence action against VIOTR” value (VIOTR) was 100%, the “Pre-emergence action against VERPE” value (VERPE) was 90% and the “Post-emergence action against ABUTH (herbicidal action in percent)” value (ABUTH [6]) was 90%. The “Post-emergence action against AMARE (herbicidal action in percent)” value (AMARE [5]) was 90% and the “Post-emergence action against STEME” value (STEME [7]) was 90.

With `CCCn1nnnc1NC(=O)c1ccc(C(F)(F)F)c(C(=O)C2CCCCC2)c1SC` [3-281] the “Pre-emergence action against DIGSA” value (DIGSA) was 80%, the “Pre-emergence action against ABUTH” value (ABUTH [1]) was 100% and the “Pre-emergence action against AMARE” value (AMARE [2]) was 80%. For the same molecule, the “Pre-emergence action against STEME” value (STEME [4]) was 90%, the “Pre-emergence action against VIOTR” value (VIOTR) was 100% and the “Post-emergence action against AMARE (herbicidal action in percent)” value (AMARE [5]) was 80%.

With `Cn1nnnc1NC(=O)c1ccc(C(F)(F)F)c(C(=O)C2CCCCC2)c1Cl` [1-155] the “Pre-emergence action against DIGSA” value (DIGSA) was 90%, the “Pre-emergence action against ABUTH” value (ABUTH [1]) was 100% and the “Pre-emergence action against AMARE” value (AMARE [2]) was 80%. For the same molecule, the “Pre-emergence action against MATIN” value (MATIN [3]) was 90%, the “Pre-emergence action against STEME” value (STEME [4]) was 90% and the “Pre-emergence action against VIOTR” value (VIOTR) was 100%. For the same molecule, the “Post-emergence action against ABUTH (herbicidal action in percent)” value (ABUTH [6]) was 90%, the “Post-emergence action against AMARE (herbicidal action in percent)” value (AMARE [5]) was 90% and the “Post-emergence action against MATIN (herbicidal action in percent)” value (MATIN [8]) was 80%. For the same molecule, the “Post-emergence action against PHBPU” value (PHBPU) was 80 and the “Post-emergence action against STEME” value (STEME [7]) was 80.
